Laboratory results: the NIST ThermoML archive (doi:10.1016/j.tca.2011.06.003)

Experiment: xn = mol fraction of the nth substance listed
Conditions: 101 kPa, Liquid; for speed of sound: Sing-around technique in a fixed-path interferometer; for mass density: Vibrating tube method

NCCNCCN [di(2-aminoethyl)amine] + CCCCO
Conditions	mass density [kg/m3]	speed of sound [m/s]	viscosity [mPa·s]
293.15 K, x1 = 0.0517	821.995	1288	–
293.15 K, x1 = 0.1085	834.306	1319.9	–
293.15 K, x1 = 0.153	843.084	1343.3	–
293.15 K, x1 = 0.2024	852.085	1369.5	–
293.15 K, x1 = 0.2524	860.585	1393.7	–
293.15 K, x1 = 0.3079	869.265	1419.6	–
293.15 K, x1 = 0.4082	883.406	1464.1	–
293.15 K, x1 = 0.5013	895.464	1502.4	–
293.15 K, x1 = 0.6067	908.152	1543.5	–
293.15 K, x1 = 0.7079	919.755	1581.6	–
293.15 K, x1 = 0.8	929.638	1616.5	–
293.15 K, x1 = 0.8548	935.634	1637	–
293.15 K, x1 = 0.9075	941.042	1656.6	–
293.15 K, x1 = 0.9525	945.451	1673.3	–
298.15 K, x1 = 0.0517	818.115	1271	3.066
298.15 K, x1 = 0.1085	830.363	1302.9	3.551
298.15 K, x1 = 0.153	839.101	1327.1	3.907
298.15 K, x1 = 0.2024	848.068	1351.9	4.256
298.15 K, x1 = 0.2524	856.54	1376.5	4.526
298.15 K, x1 = 0.3079	865.207	1402.5	4.772
298.15 K, x1 = 0.4082	879.335	1446.5	5.076
298.15 K, x1 = 0.5013	891.374	1484.6	5.214
298.15 K, x1 = 0.6067	904.038	1525.4	5.317
298.15 K, x1 = 0.7079	915.617	1562.9	5.331
298.15 K, x1 = 0.8	925.474	1597.5	5.368
298.15 K, x1 = 0.8548	931.448	1617.8	5.433
298.15 K, x1 = 0.9075	936.842	1637.4	5.485
298.15 K, x1 = 0.9525	941.233	1653.8	5.562
303.15 K, x1 = 0.0517	814.209	1254.2	2.576
303.15 K, x1 = 0.1085	826.401	1285.9	3.027
303.15 K, x1 = 0.153	835.096	1309.9	3.256
303.15 K, x1 = 0.2024	844.036	1335.1	3.52
303.15 K, x1 = 0.2524	852.484	1359.6	3.768
303.15 K, x1 = 0.3079	861.136	1385.5	3.919
303.15 K, x1 = 0.4082	875.244	1429.3	4.169
303.15 K, x1 = 0.5013	887.28	1467.1	4.262
303.15 K, x1 = 0.6067	899.921	1507.7	4.302
303.15 K, x1 = 0.7079	911.479	1545.1	4.323
303.15 K, x1 = 0.8	921.305	1579.2	4.335
303.15 K, x1 = 0.8548	927.266	1598.6	4.346
303.15 K, x1 = 0.9075	932.668	1617.5	4.366
303.15 K, x1 = 0.9525	937.017	1633.6	4.422
308.15 K, x1 = 0.0517	810.286	1237.4	2.27
308.15 K, x1 = 0.1085	822.424	1269.3	2.622
308.15 K, x1 = 0.153	831.084	1293.2	2.81
308.15 K, x1 = 0.2024	839.988	1318.5	3.027
308.15 K, x1 = 0.2524	848.419	1343	3.198
308.15 K, x1 = 0.3079	857.059	1368.6	3.341
308.15 K, x1 = 0.4082	871.155	1412.2	3.524
308.15 K, x1 = 0.5013	883.174	1450.2	3.617
308.15 K, x1 = 0.6067	895.798	1490	3.642
308.15 K, x1 = 0.7079	907.33	1527.2	3.671
308.15 K, x1 = 0.8	917.129	1560.9	3.689
308.15 K, x1 = 0.8548	923.082	1580.1	3.712
308.15 K, x1 = 0.9075	928.432	1598.6	3.731
308.15 K, x1 = 0.9525	932.798	1614.5	3.771
313.15 K, x1 = 0.0517	806.326	1220.9	–
313.15 K, x1 = 0.1085	818.415	1253.3	–
313.15 K, x1 = 0.153	827.042	1277.3	–
313.15 K, x1 = 0.2024	835.917	1302.4	–
313.15 K, x1 = 0.2524	844.331	1327.4	–
313.15 K, x1 = 0.3079	852.959	1352.7	–
313.15 K, x1 = 0.4082	867.047	1396.2	–
313.15 K, x1 = 0.5013	879.057	1433.9	–
313.15 K, x1 = 0.6067	891.664	1473.9	–
313.15 K, x1 = 0.7079	903.173	1510.5	–
313.15 K, x1 = 0.8	912.964	1543.6	–
313.15 K, x1 = 0.8548	918.81	1563	–
313.15 K, x1 = 0.9075	924.23	1580.1	–
313.15 K, x1 = 0.9525	928.584	1594.8	–
